These results are taken from patent US20150258047A1, “Therapeutic Compounds” (AKTHELIA PHARMACEUTICALS, priority 2011, published 2015).

Several values for one entry are separate records, joined by “and”; a condition that tells them apart may be missing. Equal values may be shown once. Read-outs that look alike come from different tables or passages of the source. Where no end group is shown, it is not given here.

A short description of data set [1]: Butyrate concentration in rabbit serum after oral NaB. To be noted: oral dosing of 15.6 mg to each rabbit, read-out: maximum concentration of butyrate in the blood (Cmax). Format: in vivo. How it is done: FIG. 2. Butyrate concentration in healthy rabbit serum after oral treatment with NaB. Serum was collected from healthy rabbits at different time points after oral treatment with a single 0.14 mmol dose of NaB (15.6 mg). Four analyses (duplicate analyses of two samples) of serum from a NaB treated rabbit are shown, where the concentrations are calculated from two separate standard curves (one for each duplicate). NaB: Sodium butyrate.
The maximum concentration of butyrate in the blood is about 8 μM (Cmax) after oral dosing of 15.6 mg of butyrate to each rabbit.

Data set [2] has as its system Shigella. Nature of the data set: Anti-Shigella activity in stool extracts of treated rabbits. Format: in vivo, rabbit. The following applies: compared to infected or healthy rabbits. The source says: (§1) Anti-Shigella activity in stool extracts from PBA, TBG and NaB-treated rabbits was higher compared to infected or healthy rabbits.
Data set [3] has as its system Shigella. Nature of the data set: Shigellosis rabbit model, clinical illness and recovery. Format: in vivo. The following applies: for clinical illness: Shigella infected rabbits. How it is done:
as §1
(§2) In a shigellosis model a 0.14 mmol/dose lead to 2 out of 3 rabbits recovering from shigellosis. Assuming a blood volume of 121 ml in the 2 kg rabbit the maximum concentration of NaB in the blood after IV administration would have been 1.2 mM.

For data set [4], the system named is CAP-18. Put plainly: CAP-18 gene expression in tissue specimens of Shigella-infected rabbits. Also on record: scale not given here. Format: in vivo, rabbit. To be noted: treated Shigella-infected rabbits, n = 5, median.
Another data set concerns Shigella flexneri strain. To be noted: cited from earlier work.
The test system of data set [5] is CAP-18. Nature of the data set: CAP-18 immunoreactivity in epithelial lining of organs (immunostaining, ACIA score). It counts as in vivo, rabbit. To be noted: for CAP-18 peptide in the mucosal epithelia: Shigella infected rabbits, lung, trachea, rectum and colon; for CAP-18 in the organs of healthy rabbits: oral (FIG. 1B); for CAP-18 (protein) expression: oral, shigellosis infected rabbit, rectum, distal colon, kidney, lung and trachea relative to untreated infected rabbits (FIG. 1A). The source says: FIG. 1. CAP-18 immunoreactivity in the epithelial lining of different organs in (A) Healthy rabbits, Shigella-infected rabbits and infected rabbits treated with NaB, TBG or PBA (B) healthy rabbits treated with NaB, TBG or PBA. Quantification of immunoreactive area relative to the total cell area of the tissue section was done by a computerized image analysis technique, and the results are expressed as ACIA score, i.e., the total positively stained area×total mean intensity (1-256 levels/per pixel) of the positive area divided by total cell area. One-way ANOVA was used in comparing data between healthy and infected/infected treated rabbits, between infected and infected treated rabbits, and between healthy and healthy-treated rabbits. The differences were significant when P<0.05; ‡ significant when comparing with healthy, * significant when comparing with infected.

The subject of data set [6] is Shigella dysenteriae type 1 strain. To be noted: cited from earlier work.
Data set [7] in a line: Maximum concentration of NaB in blood after IV administration (assumed blood volume). It counts as in vivo. The following applies: 0.14 mmol/dose; assuming blood volume of 121 ml in the 2 kg rabbit. Here is the method: as §2
Data set [8] has as its system Pseudomonas aeruginosa (strain PA01). Nature of the data set: Visual inspection of VA10 cell cultures infected with Pseudomonas aeruginosa. It counts as cell-based. To be noted: VA10 cells induced 48 h with 20 nM vitamin D, 4 mM PBA or both; 24 hrs after infection; control wells dense culture of bacteria. How it is done: FIG. 7. Visual assessment of survival of VA10 cells in the presence of low infectivity Pseudomonas aeruginosa 0-1 bacteria (PAO1). After cultivating for 6 days the cells were stimulated for 48 h with 4-PBA, VitD, and 4-PBA+VitD. Subsequently the cells were stimulated for 24 h with 10 MOI PAO1 and inspected under the microscope.
VA10 cells were grown in BEGM medium (Bronchial Epithelial Growth Medium). VA10 cells were induced by adding PBA and/or vitamin D to the medium. Untreated control was included. After 48 h induction the culture was infected with low dose of Pseudomonas aeruginosa (strain PA01) along with freeze-thaw-treated bacteria. After 24 hrs of cultivation the culture wells were visually inspected. Dense culture of bacteria was found in control wells, but the wells of cells that had been induced with 20 nM vitamin D, 4 mM PBA or combination of 20 nM vitamin D and 4 mM PBA contained clear medium (FIG. 7).

For data set [9] the following is noted: after the administration of a 5 g dose; cited from earlier work.
For another data set, the system named is DEFB-1. Nature of the data set: DEFB-1 mRNA expression in VA10 cells by rtPCR. It counts as cell-based, human. The following applies: first 4-PBA, subsequently low-dose inactivated Pseudomonas bacteria. How it is done:
FIG. 9. DEFB-1 expression in VA10 cells after 48 h stimulation with 4 mM 4-PBA, 20 nM VitD, and […]+20 nM VitD and subsequent 24 h stimulation with low infectivity freeze-thawed PAO1 suspension (PAO1 has been frozen in DMEM at −25° C. for a week. The majority of bacteria have been inactivated.)
In addition to the visual inspection the degree of induction of CAMP mRNA, that codes for LL-37, and DEFB-1, that codes for […], was determined by rtPCR.

Data set [10] concerns E. coli strain E2348/69 (EPEC). Format: cell-based. To be noted: strain E2348/69 (EPEC, 0.90 μM). Here is the method: To assess bactericidal activity of synthetic CAP-18 and PBA, an in vitro killing experiment was carried out with E. coli strain E2348/69 (EPEC). […] Note that dosing in Phase II TB study is 1 g daily with 5000 IU vitamin D.
The mark [11] stands for this setting: LP (lamina propria) distal colon.
Setting [12] is: SE (surface epithelium) distal colon.

In the case of `CC[C@H](C)[C@H](NC(=O)[C@H](CCCCN)NC(=O)[C@H](CCC(=O)O)NC(=O)[C@H](CCCCN)NC(=O)[C@H](CO)NC(=O)[C@H](CCCCN)NC(=O)[C@H](CCCNC(=N)N)NC(=O)[C@H](Cc1ccccc1)NC(=O)[C@H](Cc1ccccc1)NC(=O)[C@H](CC(=O)O)NC(=O)CNC(=O)[C@H](CC(C)C)NC(=O)[C@@H](N)CC(C)C)C(=O)NCC(=O)N[C@@H](CCCCN)C(=O)N[C@@H](CCC(=O)O)C(=O)N[C@@H](Cc1ccccc1)C(=O)N[C@@H](CCCCN)C(=O)N[C@@H](CCCNC(=N)N)C(=O)N[C@H](C(=O)N[C@H](C(=O)N[C@@H](CCC(N)=O)C(=O)N[C@@H](CCCNC(=N)N)C(=O)N[C@H](C(=O)N[C@@H](CCCCN)C(=O)N[C@@H](CC(=O)O)C(=O)N[C@@H](Cc1ccccc1)C(=O)N[C@@H](CC(C)C)C(=O)N[C@@H](CCCNC(=N)N)C(=O)N[C@@H](CC(N)=O)C(=O)N[C@@H](CC(C)C)C(=O)N[C@H](C(=O)N1CCC[C@H]1C(=O)N[C@@H](CCCNC(=N)N)C(=O)N[C@H](C(=O)N[C@@H](CCC(=O)O)C(=O)N[C@@H](CO)C(=O)O)[C@@H](C)O)C(C)C)[C@@H](C)CC)C(C)C)[C@@H](C)CC` [LL-37], the Zone diameter was 0 mm in the data set with Haemophilus influenzae (50 uM); 7.75 mm with Haemophilus influenzae (100 uM); 13.3 mm in the data set with Haemophilus influenzae (300 uM); 5.4 mm with Moraxella catarrhalis (10 uM); 6.3 mm with Moraxella catarrhalis (25 uM); 7.45 mm in the data set with Moraxella catarrhalis (50 uM). The same compound displayed a Zone diameter in the data set on Moraxella catarrhalis (100 uM) of 8.9 mm.
Regarding `CCCC(=O)O` [NaB, sodium butyrate], in [1], the Cmax is roughly 8 µM. The “Anti-Shigella activity in stool extracts” value in the data set with Shigella [2] is recorded as “higher”. Further, in the data set on Shigella [3] (0.14 mmol/dose, intravenous), the “rabbits recovering from shigellosis” value is 2 out of 3. For the same compound, the clinical illness result with Shigella [3] is on record as “reduced clinical illness”. Moreover, the CAP-18 gene expression in the data set on CAP-18 [4] (Kidney) came out at 17.4; in the data set on CAP-18 [4] (setting [11]), 0.55; with CAP-18 [4] (LP (lamina propria) rectum) it was 0.1; in the data set with CAP-18 [4] (Lungs) it was 12.6; in the data set on CAP-18 [4] (setting [12]) it was 5.0; with CAP-18 [4] (SE (surface epithelium) rectum), 0.3. Further, the CAP-18 gene expression with CAP-18 [4] (Trachea) worked out at 0.71; in the data set on CAP-18 [4] (U. tract) it was 0.19. Besides, the “concentration for maximum killing” value in the data set with Shigella flexneri strain was 400 mM and 44 mg/ml; in data set [6] it was 400 mM and 44 mg/ml. Moreover, the “CAP-18 peptide in the mucosal epithelia” value in the data set with CAP-18 [5] is given as “up-regulation”. Also, the CAP-18 level in the data set on CAP-18 [5] (colonic SE, intravenous injection into infected rabbits) worked out at 5.6±1.8 ACIA score; in the data set with CAP-18 [5] (colonic SE, orally treated infected rabbits), 7.4±0.5 ACIA score; in the data set with CAP-18 [5] (rectal SE, intravenous injection into infected rabbits), 6.5±1.8 ACIA score; in the data set with CAP-18 [5] (rectal SE, orally treated infected rabbits), 8.13±1 ACIA score. Moreover, the “CAP-18 in the organs of healthy rabbits” value in the data set with CAP-18 [5] was “do not cause increase”. In the data set on CAP-18 [5], the “CAP-18 (protein) expression” value was “systemic stimulation”. Besides, the “maximum concentration in the blood after IV administration” value in data set [7] amounted to 1.2 mM.
Consider `O=C(O)CCCc1ccccc1` [PBA, sodium 4-phenylbutyrate, reference compound], for which the “visual inspection of culture wells” value in [8] is “clear medium”. The “Anti-Shigella activity in stool extracts” value in the data set on Shigella [2] is listed as “higher”. For the same compound, the clinical illness result in the data set with Shigella [3] was “reduced clinical illness”. Further, the CAP-18 gene expression was 3.9 with CAP-18 [4] (Kidney); 0.53 with CAP-18 [4] (setting [11]); 0.41 in the data set on CAP-18 [4] (LP (lamina propria) rectum); 5.3 in the data set on CAP-18 [4] (Lungs); 2.4 in the data set on CAP-18 [4] (setting [12]); 0.18 in the data set on CAP-18 [4] (SE (surface epithelium) rectum). In addition, the figures for the CAP-18 gene expression in the data set on CAP-18 [4] (Trachea) and with CAP-18 [4] (U. tract) were 1.1 and 0.13, respectively. For the same compound, the Cmax in data set [9] is 1200 µM. The “CAP-18 peptide in the mucosal epithelia” value in the data set on CAP-18 [5] is “up-regulation”. In the data set with CAP-18 [5], the “CAP-18 in the organs of healthy rabbits” value is reported as “do not cause increase”. Besides, the “CAP-18 (protein) expression” value in the data set with CAP-18 [5] is on record as “systemic stimulation”. For the same compound, in the data set on DEFB-1, the DEFB-1 expression result is listed as “up to six-fold”.
In the case of `CCCC(=O)OCC(COC(=O)CCC)OC(=O)CCC` [TBG, glyceryl tributyrate], the “Anti-Shigella activity in stool extracts” value in the data set on Shigella [2] is given as “higher”. Besides, the clinical illness entry with Shigella [3] is “reduced clinical illness”. Further, the CAP-18 gene expression with CAP-18 [4] (Kidney) was found to be 2.7; in the data set on CAP-18 [4] (setting [11]), 0.43; in the data set on CAP-18 [4] (LP (lamina propria) rectum) it was 0.07; with CAP-18 [4] (Lungs), 6.4; in the data set with CAP-18 [4] (setting [12]), 2.8; in the data set on CAP-18 [4] (SE (surface epithelium) rectum) it was 0.4. The CAP-18 gene expression was determined as 1.11 with CAP-18 [4] (Trachea) and 0.25 with CAP-18 [4] (U. tract). Also, the “CAP-18 peptide in the mucosal epithelia” value in the data set on CAP-18 [5] was “up-regulation”. The “CAP-18 peptide level in the kidney” value in the data set on CAP-18 [5] (non-infected rabbits (FIG. 1B)) is listed as “increased levels”. In addition, in the data set on CAP-18 [5], the “CAP-18 (protein) expression” value was “systemic stimulation”.
“GLRKRLRKFRNKIKEKLKKIGQKIQGLLPKLAPRTDY [CAP-18]”: the “killing of EPEC” value in data set [10] is reported as 97-99%.
With vitamin D, in data set [8], the “visual inspection of culture wells” value was “clear medium”.
